# Columns and labels:
# Influenza A virus [1] = format: functional, organism-based
# Influenza A virus [2] = assay: microbe, parasite or virus in culture; format: functional, organism-based; conditions: A/WSN/1933(H1N1), MDCK, 72 h
Compound,EC50 (Influenza A virus [1]) [nM],EC50 (Influenza A virus [2]) [nM]
CC(C)N1CN(C(c2ccccc2)c2ccccc2)n2ccc(=O)c(O)c2C1=O,80.4,165
CC(C)N1C[C@H](C(c2ccccc2)c2ccccc2)n2ccc(=O)c(O)c2C1=O,89.2,155
